In the supplement of paper PMC10307832:

What was measured:
Test in all cases: relative viability (nuclei count vs DMSO), 5 days (fraction); higher = more cells survive
[1] = compound: C1COCCN1C2=NC(=NC3=C2OC4=C3C=CC=N4)C5=CC(=CC=C5)NC(=O)C6=CN=C(C=C6)N + N=C(N)NC(=N)NCCc1ccccc1 [Phenformin] (partner 250 µM)
Summary of the method: (§1)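 Relative viability divides the nuclei count in treated wells by that in vehicle wells. Lung cancer cell lines were seeded in 1536-well plates, dosed by pin tool the next day, and fixed and stained after 5 days in one step with final 0.05% Triton X-100, 1% formaldehyde and 1 ug/ml Hoechst. Dosing was a single drug or a fixed anchor-drug dose plus five library-drug doses (not always all listed) in √10 steps, and values are medians of duplicate plates imaged at 4×.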

SGI-1776 + Crizotinib = compound: CN1CCC(CNc2ccc3ncc(-c4cccc(OC(F)(F)F)c4)n3n2)CC1 [SGI-1776] + C[C@@H](Oc1cc(-c2cnn(C3CCNCC3)c2)cnc1N)c1c(Cl)ccc(F)c1Cl [Crizotinib] (partner 1 µM)
Summary of the method: as §1

[2] = compound: C1COCCN1C2=NC(=NC3=C2OC4=C3C=CC=N4)C5=CC(=CC=C5)NC(=O)C6=CN=C(C=C6)N + CC(=O)c1c(C)c2cnc(Nc3ccc(N4CCNCC4)cn3)nc2n(C2CCCC2)c1=O [Palbociclib] (partner 0.5 µM)
Summary of the method: as §1

Entinostat + Bortezomib = compound: Nc1ccccc1NC(=O)c1ccc(CNC(=O)OCc2cccnc2)cc1 [Entinostat] + CC(C)C[C@H](NC(=O)[C@H](Cc1ccccc1)NC(=O)c1cnccn1)B(O)O [Bortezomib] (partner 0.002 µM)
Summary of the method: as §1

Row | Cell Line | relative viability ([1]; first compound 0.02 µM) | relative viability ([1]; first compound 0.06325 µM) | relative viability ([1]; first compound 0.2 µM) | relative viability ([1]; first compound 0.6325 µM) | relative viability ([1]; first compound 2 µM) | relative viability (SGI-1776 + Crizotinib; first compound 0.08 µM) | relative viability (SGI-1776 + Crizotinib; first compound 0.8 µM) | relative viability (SGI-1776 + Crizotinib; first compound 2.53 µM) | relative viability (SGI-1776 + Crizotinib; first compound 8 µM) | relative viability ([2]; first compound 0.02 µM) | relative viability ([2]; first compound 0.06325 µM) | relative viability ([2]; first compound 0.2 µM) | relative viability ([2]; first compound 0.6325 µM) | relative viability ([2]; first compound 2 µM) | relative viability (Entinostat + Bortezomib; first compound 0.02 µM) | relative viability (Entinostat + Bortezomib; first compound 0.06325 µM) | relative viability (Entinostat + Bortezomib; first compound 0.2 µM) | relative viability (Entinostat + Bortezomib; first compound 0.6325 µM) | relative viability (Entinostat + Bortezomib; first compound 2 µM)
1 | NCI-H322M | 0.781 | 0.786 | 0.683 | 0.735 | 0.508 | 0.998 | 0.824 | 1.01 | 0.664 | 0.485 | 0.536 | 0.54 | 0.48 | 0.384 | 1.33 | 1.33 | 1.31 | 1.27 | 1.3
2 | PC-3 [JPC-3] | 0.485 | 0.491 | 0.453 | 0.469 | 0.443 | 0.978 | 1.05 | 0.981 | 0.904 | 0.506 | 0.512 | – | 0.592 | 0.495 | 0.853 | 0.814 | 0.824 | 0.409 | 0.508
3 | EPLC-272H | 0.306 | 0.305 | 0.26 | 0.241 | 0.282 | 0.832 | 0.891 | 0.909 | 0.772 | 0.313 | – | 0.313 | 0.37 | 0.329 | 0.889 | 0.848 | 0.879 | 0.299 | 0.204
4 | A-427 | 0.397 | 0.359 | 0.275 | 0.245 | 0.292 | 0.849 | 0.92 | 0.974 | 0.601 | 0.517 | 0.524 | 0.496 | 0.512 | 0.454 | 0.99 | 0.975 | 0.966 | 0.916 | 0.632
